The results in this text go back to paper PMC5769128, “Human UDP-Glucuronosyltransferase 2B4 and 2B7 Are Responsible for Naftopidil Glucuronidation in Vitro” (Frontiers in Pharmacology, 2018).

Some results are limits rather than exact numbers.

Series [1] concerns the target T1, UGT2B7 (Homo sapiens, UniProt P16662).
T1 sequence (P16662 24-529): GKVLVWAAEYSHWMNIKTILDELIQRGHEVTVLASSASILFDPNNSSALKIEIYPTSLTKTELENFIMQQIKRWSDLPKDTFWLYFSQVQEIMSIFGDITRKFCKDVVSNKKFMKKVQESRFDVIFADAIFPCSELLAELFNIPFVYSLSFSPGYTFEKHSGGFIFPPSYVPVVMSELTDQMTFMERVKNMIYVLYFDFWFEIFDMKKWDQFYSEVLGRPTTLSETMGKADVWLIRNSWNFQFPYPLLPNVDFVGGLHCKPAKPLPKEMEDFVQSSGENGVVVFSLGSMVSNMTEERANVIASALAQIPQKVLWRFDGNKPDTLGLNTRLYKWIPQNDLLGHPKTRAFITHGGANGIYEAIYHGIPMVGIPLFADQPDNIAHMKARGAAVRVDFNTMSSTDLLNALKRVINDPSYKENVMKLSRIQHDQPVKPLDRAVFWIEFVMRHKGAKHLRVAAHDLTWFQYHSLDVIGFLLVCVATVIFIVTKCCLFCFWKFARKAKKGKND
The experiment in a line: Kinetics of NAF enantiomer glucuronidation by recombinant UGT2B7. The series is classed as in vitro ADME. More on the design: purchased BD Gentest. The protocol:
All glucuronidation assays were conducted in an incubation volume of 200 μL. Incubations were performed at 37°C in 50 mM Tris–HCl buffer (pH 7.5) with 10 mM magnesium chloride, 1 mg protein/mL of enzyme (microsomes and recombinant human UGTs), alamethicin (100 μg of alamethicin/mg microsomal protein), and NAF enantiomers (2.5–80 μM). The reaction was initiated by the addition of UDPGA (5 mM) and incubated at 37°C in a shaking water bath for 45 min. The reaction was terminated by the addition of 200 μL of ice-cold acetonitrile containing the IS (1 μM) and then centrifuged at 5000 ×g for 10 min at 4°C. The supernatant fraction was injected into the RRLC-MS/MS apparatus. Protein concentration (0.5–2 mg/mL) and incubation time (15–180 min) were optimized in preliminary studies to be within initial linear rate conditions.
Kinetic parameters were assessed in the HLM, RLM, HKM, RKM, and recombinant human UGTs (UGT2B4, 2B7, and 1A9).

Series [2] addresses T2, UGT2B15 (Homo sapiens, UniProt P54855).
T2 construct: purchased BD Gentest
T2 sequence (P54855 24-530): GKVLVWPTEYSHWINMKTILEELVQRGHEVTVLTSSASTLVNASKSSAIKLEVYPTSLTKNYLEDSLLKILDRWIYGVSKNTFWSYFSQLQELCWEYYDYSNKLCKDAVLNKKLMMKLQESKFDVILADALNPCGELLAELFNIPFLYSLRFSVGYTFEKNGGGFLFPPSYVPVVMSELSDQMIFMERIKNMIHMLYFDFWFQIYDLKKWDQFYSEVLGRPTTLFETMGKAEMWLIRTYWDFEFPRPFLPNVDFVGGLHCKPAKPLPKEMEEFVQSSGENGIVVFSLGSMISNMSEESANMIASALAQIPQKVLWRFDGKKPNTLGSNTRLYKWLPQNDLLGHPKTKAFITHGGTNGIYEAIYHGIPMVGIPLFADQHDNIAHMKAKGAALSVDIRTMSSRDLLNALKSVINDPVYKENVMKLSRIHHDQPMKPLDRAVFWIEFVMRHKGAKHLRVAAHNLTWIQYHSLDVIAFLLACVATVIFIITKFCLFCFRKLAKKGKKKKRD
The experiment in a line: Inhibition screening of recombinant UGTs by NAF enantiomers, UGT2B15 (4-MU). The class given is in vitro ADME. The conditions noted are these: recombinant UGT2B15, probe 4-MU, 100 μM NAF enantiomer, read-out: Inhibition of 4-MU-G formation. As for the experimental part: (§1) The inhibition screening study was performed by investigating the 12 recombinant UGTs with 10 and 100 μM NAF enantiomer. […] 4-MU, as a non-specific substrate, was added to the other incubated samples. Instead of NAF enantiomers, the same volume of water was added to be the control sample. […] The formation of 4-MU-G and TFP-G produced from the 12 incubation system were analyzed by HPLC. The instrument parameters for the LC were as follows: system, Agilent 1260; Agilent Eclipse Plus C18 (2.1 mm × 50 mm, 1.8 μm, Santa Clara, CA, United States); mobile phase, methanol: 0.1% formic acid in water (0–3 min, 35:65; 3.1–4.5 min, 65:35; 4.6–5 min, 35:65); flow rate, 0.4 mL/min; column temperature, 25°C; and injection volume, 2 μL. The retention times of 4-MU, 4-MU-G, TFP, TFP-G, and MU (IS) were 1.5, 0.5, 2.2, 1.8, and 1.0 min, respectively.

Series [3] concerns the target T1, UGT2B7. The experiment in a line: biochemical.
Method: The inhibition of UGT1A9 and UGT2B7 by NAF enantiomer was investigated using the pooled HLM, UGT1A9, and UGT2B7 with concentrations similar to that of the NAF enantiomer. Propofol, which was used as the specific substrate of UGT1A9, was added to the incubation. […] Inhibitor constants (Ki value) were estimated by fitting the expressions for competitive, non-competitive, and mixed inhibition models with Dixon plots and Lineweaver–Burk plots.
The target of series [4] is T3, UGT1A7 (Homo sapiens, UniProt Q9HAW7).
T3 construct: purchased BD Gentest
T3 sequence (Q9HAW7 26-530): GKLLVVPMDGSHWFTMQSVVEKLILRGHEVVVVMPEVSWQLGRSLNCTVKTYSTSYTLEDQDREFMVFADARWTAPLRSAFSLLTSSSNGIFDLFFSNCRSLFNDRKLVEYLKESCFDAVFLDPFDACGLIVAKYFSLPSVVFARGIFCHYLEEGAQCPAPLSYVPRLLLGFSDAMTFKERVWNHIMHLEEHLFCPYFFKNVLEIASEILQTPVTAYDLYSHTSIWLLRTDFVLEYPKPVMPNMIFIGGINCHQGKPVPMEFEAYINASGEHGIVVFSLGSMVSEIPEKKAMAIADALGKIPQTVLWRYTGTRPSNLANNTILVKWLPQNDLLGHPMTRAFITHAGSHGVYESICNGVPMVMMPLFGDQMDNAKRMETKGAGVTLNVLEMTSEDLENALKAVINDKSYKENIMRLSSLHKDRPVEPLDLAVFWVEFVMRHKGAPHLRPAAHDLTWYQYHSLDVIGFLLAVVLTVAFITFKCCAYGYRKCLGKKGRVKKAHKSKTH
The experiment in a line: Inhibition screening of recombinant UGTs by NAF enantiomers, UGT1A7 (4-MU). The class given is in vitro ADME. The settings on record: recombinant UGT1A7, probe 4-MU, 100 μM NAF enantiomer, read-out: Inhibition of 4-MU-G formation. As for the experimental part: as §1

Usually inhibition stands for the percentage by which the read-out fell short of the control. The Ki is a measure of affinity in units of concentration, obtained from inhibition or displacement. Higher therefore signals weaker binding. `COc1ccccc1N1CCN(C[C@H](O)COc2cccc3ccccc23)CC1` [S(-)-NAF]: the Kinetics type result in series [1] is given as “substrate inhibition model”. Moreover, the inhibition at 100 μM in series [2] and in series [4] was > 75% throughout. Further, the Ki in series [3] came to 18.5 ± 3.3 µM.
For the compound `COc1ccccc1N1CCN(C[C@@H](O)COc2cccc3ccccc23)CC1` [R(+)-NAF], in series [1], the Kinetics type result was “substrate inhibition model”. In addition, the inhibition at 100 μM in series [2] and in series [4] was > 75% each time. In series [3], this compound had a Ki of 12.1 ± 2.2 µM.
